Where two headings read alike, the source gives them in different places.
How the values were obtained:
HTT mRNA = test: RT-qPCR splicing assay, HTT mRNA canonical (CJ) and alternative (AJ) junction; assay type: cell-based, human; details: Homo sapiens
Description: (§1) Compounds described herein were used to modulate RNA transcript abundance in cells. The expression of a target mRNA was measured by detecting the formation of an exon-exon junction in the canonical transcript (CJ). A compound mediated exon-inclusion event was detected by observing an increase in formation of a new junction with an alternative exon (AJ). Real-time qPCR assays were used to detect these splicing switches and interrogate the potency of various compounds towards different target genes. A high-throughput real time quantitative PCR (RT-qPCR) assay was developed to measure these two isoforms of the mRNA (CJ and AJ) for exemplary genes, such as HTT, SMN2, and MYB, together with a control housekeeping gene, GAPDH or GUSB or PPIA, used for normalization. Briefly, the A673 or K562 cell line was treated with various compounds described herein (e.g., compounds of Formula (I)). After treatment, the levels of the HTT, MYB, or SMN2 mRNA targets were determined from each sample of cell lysate by cDNA synthesis followed by qPCR.
(§2) The A673 cell line was cultured in DMEM with 10% FBS. Cells were diluted with full growth media and plated in a 96-well plate (15,000 cells in 100 ul media per well). The plate was incubated at 37° C. with 5% CO2 for 24 hours to allow cells to adhere. An 11-point 3-fold serial dilution of the compounds was made in DMSO then diluted in media in an intermediate plate. Compounds were transferred from the intermediate plate to the cell plate with the top dose at a final concentration of 10 uM in the well. Final DMSO concentration was kept at or below 0.25%. The cell plate was returned to the incubator at 37° C. with 5% CO2 for an additional 24 hours.
(§3) The K562 cell line was cultured in IMDM with 10% FBS. For K562, cells were diluted with full growth media and plated in either a 96-well plate (50,000 cells in 50 uL media per well) or a 384-well plate (8,000-40,000 cells in 45 uL media per well). An 11-point 3-fold serial dilution of the compounds were made in DMSO then diluted in media in an intermediate plate. Compound was transferred from the intermediate plate to the cell plate with the top dose at a final concentration of 10 uM in the well. Final DMSO concentration was kept at or below 0.25%. Final volume was 100 uL for 96-well plate and 50 uL for 384-well plate. The cell plate was then placed in an incubator at 37° C. with 5% CO2 for 24 hours.
(§4) The cells were then gently washed with 50 uL-100 uL cold PBS before proceeding to addition of lysis buffer. 30 uL-50 μL of room temperature lysis buffer with DNAse I (and optionally RNAsin) was added to each well. Cells were shaken/mixed thoroughly at room temperature for 5-10 minutes for lysis to take place and then 3 uL-5 μL of room temperature stop solution was added and wells were shaken/mixed again. After 2-5 minutes, the cell lysate plate was transferred to ice for RT-qPCR reaction setup. The lysates could also be frozen at −80° C. for later use.
(§5) In some cases, a direct lysis buffer was used. An appropriate volume of 3× lysis buffer (10 mM Tris, 150 mM NaCl, 1.5%-2.5% Igepal and 0.1-1 U/uL RNAsin, pH 7.4) was directly added to either K562 or A673 cells in media and mixed by pipetting 3 times. The plates were then incubated at room temperature with shaking/rocking for 20-50 minutes to allow for lysis to take place. After this time, the cell lysate plate was transferred to ice to set up for the RT-qPCR reactions. The lysates could also be frozen at −80° C. for later use.
(§6) To set up 10 uL RT-qPCR reactions, cell lysates were transferred to 384-well qPCR plates containing the master mix according to the table below. The plates were sealed, gently vortexed, and spun down before the run. The volumes were adjusted accordingly in some instances where the reaction was carried in 20 μL. The table below summarizes the components of the RT-qPCR reactions:
(§7) The RT-qPCR reaction was performed using a QuantStudio (ThermoFisher) under the following fast cycling conditions. […]

MYB mRNA = test: RT-qPCR splicing assay, MYB mRNA canonical (CJ) and alternative (AJ) junction; assay type: cell-based, human; details: Homo sapiens
Description: as §1, §2, §3, §4, §5, §6, §7

SMN2 mRNA = test: RT-qPCR splicing assay, SMN2 mRNA; assay type: cell-based, human; details: Homo sapiens, canonical junction qPCR panel, Table 4; read-out: SMN2 IC50 (decrease in CJ mRNA levels)
Description: as §1, §2, §3, §4, §5, §6, §7

MYB = test: HiBiT protein abundance assay, MYB (K562 HiBiT knock-in); assay type: cell-based, human; details: HiBiT knock-in K562 cells, 24 hours, top dose 10 μM
Description: (§8) Compounds described herein were used to screen for effects on quantitative protein abundance using a HiBit assay system (Promega). Quantitative protein abundance was determined by measuring the protein levels of HiBit-tagged protein targets expressed in cell culture via luminescence using the Nano-Glo HiBiT Lytic Detection System, which uses a split complementation assay format to reconstitute NanoBiT enzyme to generate a luminescent signal. A protein abundance assay was developed such that endogenous protein targets could be modified with the HiBiT peptide tag and their abundance could be assessed after compound treatment. Briefly, K562 cell lines containing a HiBiT-modification were treated with various compounds described herein (e.g., compounds of Formulas (I), or (II)). After treatment for 24 hours, the protein abundance of a specific target was determined by measuring luminescence.
(§9) Cells were maintained in IMIDM with 10% FBS. Before the assay, cells were diluted with […] growth media (IMIDM+[…] media) and were seeded in a 384-well plate at a density of 10000 cells/well (for each cell line listed in Table 6). Each compound was prepared as a 10-point 3-fold serial dilution in DMSO with the top dose at a final concentration of 10 μM in the well. Unmodified K562 cells were added at the previously specified density with DMSO to serve as an assay baseline and positive control (PC) and DMSO only with the respective modified cell lines was added to the negative control (NC) columns. Final DMSO concentration was kept at or below 0.25%. Treated cell plates were placed in an incubator at 37° C. with […] for 24 hours. After 24 hours, 25 μL of Complete HiBit Lytic reagent was added to each well at room temperature (e.g. one plate requiring 10 mL Lytic Buffer, 100 μL LgBiT Protein, 200 μL Lytic Substrate), shaken for 5 minutes at 600 RPM, then left to sit for 10 minutes for signal to stabilize before reading on a Spark Cyto plate reader (Tecan) with a 500 ms measurement time.
(§10) To determine compound effects on protein abundance of each target in Table 6, the percent response for each respective cell line was calculated at each compound concentration as follows:
(§11) % response=100*(S−PC)(NC−PC)
(§12) For the normalized response at each concentration, a four-parameter logistical regression was fit to the data and the response was interpolated at the […] to determine a concentration for protein abundance at 50% (IC50) the untreated control.

HTT = test: HiBiT protein abundance assay, HTT (K562 HiBiT knock-in); assay type: cell-based, human; details: HiBiT knock-in K562 cells, 24 hours, top dose 10 μM
Description: as §8, §9, §10, §11, §12

Target C = test: HiBiT protein abundance assay, Target C (K562 HiBiT knock-in); assay type: cell-based, human; details: HiBiT knock-in K562 cells, 24 hours, top dose 10 μM
Description: as §9, §10, §11, §12

K562 cells = test: Cell Titer Glo 2.0 cell viability (toxicity) assay, K562; details: 500 cells/well, 72 hours
[1] = HTT alternative junction mRNA, RT-qPCR, read-out: HTT AJ (increase in AJ mRNA, AC50)
[2] = HTT canonical junction mRNA, RT-qPCR, read-out: HTT CJ (decrease in CJ mRNA levels, IC50)
[3] = canonical junction qPCR panel, Table 4, read-out: HTT IC50 (decrease in CJ mRNA levels)
[4] = MYB alternative junction mRNA, RT-qPCR, read-out: MYB AJ (increase in AJ mRNA, AC50)
[5] = MYB canonical junction mRNA, RT-qPCR, read-out: MYB CJ (decrease in CJ mRNA levels, IC50)
[6] = canonical junction qPCR panel, Table 4, read-out: MYB IC50 (decrease in CJ mRNA levels)
[7] = RT-qPCR, HTT alternative junction mRNA increase, read-out: HTT AJ (increase in alternative junction mRNA, AC50)
[8] = RT-qPCR, HTT canonical junction mRNA decrease, read-out: HTT CJ (decrease in canonical junction mRNA, IC50)
[9] = RT-qPCR, MYB alternative junction mRNA increase, read-out: MYB AJ (increase in alternative junction mRNA, AC50)
[10] = RT-qPCR, MYB canonical junction mRNA decrease, read-out: MYB CJ (decrease in canonical junction mRNA, IC50)

Compound	AC50 (HTT mRNA; [1])	IC50 (HTT mRNA; [2])	IC50 (HTT mRNA; [3])	AC50 (MYB mRNA; [4])	IC50 (MYB mRNA; [5])	IC50 (MYB mRNA; [6])	IC50 (SMN2 mRNA)	IC50 (MYB)	IC50 (HTT)	IC50 (Target C)	Effect of Exemplary Compounds on Cell Viability, K562 (K562 cells)	AC50 (HTT mRNA; [7])	IC50 (HTT mRNA; [8])	AC50 (MYB mRNA; [9])	IC50 (MYB mRNA; [10])
Cc1nc2c(F)c(O)c(-c3ccc4nc(N5CC[C@@H](NC(C)(C)C)C5)ccc4n3)cc2o1 (single isomer, unassigned) [Compound 256]	< 100 nM	< 100 nM	< 100 nM	< 100 nM	< 100 nM	< 100 nM	< 100 nM	< 100 nM	< 100 nM	< 100 nM	A (A represents <100 nM)				
CN(C(=O)Nc1cn[nH]c1)c1cc2nc(N3CCNCC3)ccc2cn1 [Compound 110]								> 10000 nM	> 10000 nM	> 10000 nM					
O=C(Nc1cn[nH]c1)Nc1cc2nc(N3CCNCC3)ccc2cn1 [Compound 111]								> 10000 nM	> 10000 nM	> 10000 nM					
O=C(NCc1ccn[nH]1)Nc1cc2nc(N3CCNCC3)ccc2cn1 [Compound 112]								> 10000 nM	> 10000 nM	> 10000 nM					
CN1CCC(N(C)c2ccc3nc(-c4cc5cn(C)nc5cc4O)ccc3n2)CC1 [Compound 126]	100 to 1000 nM	100 to 1000 nM	100 to 1000 nM	100 to 1000 nM	100 to 1000 nM	100 to 1000 nM	< 100 nM	100 to 1000 nM	100 to 1000 nM	100 to 1000 nM					
Cn1cc2cc(-c3ccc4nc(N5C[C@H]6CC[C@@H](C5)N6)ccc4n3)c(O)cc2n1 [Compound 135]	1000 to 10000 nM	1000 to 10000 nM	1000 to 10000 nM	100 to 1000 nM	100 to 1000 nM	100 to 1000 nM	< 100 nM	100 to 1000 nM	1000 to 10000 nM	1000 to 10000 nM					
Cc1cn2cc(-c3ccc4nc(C5CCNCC5)ccc4n3)c(O)c(C)c2n1 [Compound 151]	100 to 1000 nM	100 to 1000 nM	100 to 1000 nM	100 to 1000 nM	100 to 1000 nM	100 to 1000 nM	100 to 1000 nM	100 to 1000 nM	100 to 1000 nM	100 to 1000 nM					
Cn1cc2cc(-c3ccc4cc(C5CCNCC5)ccc4n3)c(O)c(F)c2n1 [Compound 241]	< 100 nM	< 100 nM		< 100 nM	< 100 nM			< 100 nM	< 100 nM	< 100 nM	A (A represents <100 nM)				
CNC(=O)c1nc(-c2cc3cn(C)nc3c(C)c2O)nc2ccc(N3CCNCC3)cc12 [Compound 501, 2-(6-hydroxy-2,7-dimethylindazol-5-yl)-N-methyl-6-(piperazin-1-yl)quinazoline-4-carboxamide]								< 100 nM	100 to 1000 nM	100 to 1000 nM	A (A represents <100 nM)				
Cc1nc2c(F)cc(-c3ncc4cc(N5C[C@@H](C)N[C@@H](C)C5)ccc4n3)cn2c1F [Compound 837, 2-{3,8-difluoro-2-methylimidazo[1,2-a]pyridin-6-yl}-6-[(3R,5S)-3,5-dimethylpiperazin-1-yl]quinazoline]			100 to 1000 nM			1000 to 10000 nM	100 to 1000 nM				C (C represents 1000-9999 nM)	1000 to 10000 nM	100 to 1000 nM	1000 to 10000 nM	1000 to 10000 nM
COc1nc(-c2ncc3cc(N4C[C@@H](C)N[C@@H](C)C4)ccc3n2)cn2cc(C)nc12 [Compound 838]			> 10000 nM			100 to 1000 nM	< 100 nM				C (C represents 1000-9999 nM)	> 10000 nM	> 10000 nM	100 to 1000 nM	100 to 1000 nM
C[C@H]1CN(c2ccc3nc(-c4cc(F)c5nn(C)c(F)c5c4)ncc3c2)C[C@H](C)N1 [Compound 924]			> 10000 nM			1000 to 10000 nM	100 to 1000 nM				C (C represents 1000-9999 nM)	1000 to 10000 nM	> 10000 nM	1000 to 10000 nM	1000 to 10000 nM
C[C@@H]1CN(c2ccc3nc(-c4cc(F)c5nn(C)c(F)c5c4)ncc3c2)C[C@H](C)N1 [Compound 925]			1000 to 10000 nM			1000 to 10000 nM	100 to 1000 nM				C (C represents 1000-9999 nM)	100 to 1000 nM	1000 to 10000 nM	1000 to 10000 nM	1000 to 10000 nM

Source: patent US20250092065A1, “2-(INDAZOL-5-YL)-6-(PIPERIDIN-4-YL)-1,7-NAPHTHYRIDINE DERIVATIVES AND RELATED COMPOUNDS AS MODULATORS FOR SPLICING NUCLEIC ACIDS AND FOR THE TREATMENT OF PROLIFERATIVE DISEASES” (REMIX THERAPEUTICS INC., priority 2022, published 2025)
